Legend:
[1] = test system: BG3594, pDALsub1; experiment: Sensitivity to β-chloro-D-alanine of strain carrying alr-expressing plasmid, LB agar plates; format: cell-based, Bacillus subtilis; parameters: key to Resistance (growth) on LB agar plate: +: growth; −: no growth; conditions: for Resistance (growth) on LB agar plate: strain BG3594, pDALsub1
Method: (§1) In a first phase, the concentration of β-chloro-D-alanine (CDA) necessary to inhibit growth of B. subtilis was determined by plating dilutions of LB-grown strain BG3594 on LB agar plates containing different concentrations of CDA. […] Other alanine racemase inhibitors, such as cycloserine, could be used instead of CDA.

[2] = test system: Bacillus subtilis BG3594; experiment: Sensitivity threshold to β-chloro-D-alanine, dilutions plated on LB agar plates; format: cell-based; parameters: key to Resistance (growth) on LB agar plate: +: growth; −: no growth; conditions: for Resistance (growth) on LB agar plate: strain BG3594; for Growth of BG3594 in presence of CDA: LB agar
Method: as §1

In the case of N[C@H](CCl)C(=O)O [CDA, β-chloro-D-alanine], the “Resistance (growth) on LB agar plate” value ([1]; CDA 20 mg/L) is reported as “+”, the “Resistance (growth) on LB agar plate” value ([1]; CDA 50 mg/L) is reported as “+” and the “Resistance (growth) on LB agar plate” value ([1]; CDA 100 mg/L) is reported as “+”. The “Growth of BG3594 with alr-expressing plasmid in presence of CDA” value ([1]; all CDA concentrations tested (up to 100 mg/L), LB agar) was “allows growth”, the “Resistance (growth) on LB agar plate” value ([2]; CDA 20 mg/L) was “+” and the “Resistance (growth) on LB agar plate” value ([2]; CDA 50 mg/L) was “−**”. The “Resistance (growth) on LB agar plate” value ([2]; CDA 100 mg/L) was “−”, the “Growth of BG3594 in presence of CDA” value ([2]; concentration of 20 mg/L) was “can still grow” and the “Growth of BG3594 in presence of CDA” value ([2]; concentration of 50 mg/L) was “totally inhibited”.
